According to patent US20080241274A1 (ZIOPHARM Oncology, Inc., priority 2006, published 2008):
Like-named read-outs stand apart in the source and are kept apart here.

Assays:
[1] = system: MCF-7 ER-positive breast cancer; test: Monolayer assay (DNA content by propidium iodide), single agents and indibulin combinations, MCF-7; type: cell-based, human; conditions: for IC50: Homo sapiens; for CI (e), coefficient of interaction under optimal experimental concentrations: named drug in combination with indibulin, mean of quadruplicate
Experimental: (§1) The monolayer assay determines the in vitro antitumor activity of test compounds and their capacity to inhibit survival and proliferation of established tumor cell lines. These effects can be determined by establishing the number of viable cells based on measuring the DNA content using propidium iodide. […] Between 5,000 and 10,000 cells were seeded in 96 well plates on Day 0 and the compounds were added 1 day later and incubated for 4 days. The activity was assessed by their IC50 and IC70 values.
(§2) Growth IC50 and IC70 values (Table 2) were determined using XLfit software package, and used to set the concentration ranges and drug ratios for the synergy detection part of the study.
(§3) Chou-Talalay median effect method was used to quantitatively characterize drug-drug interaction [Chou T. C. Theoretical basis, experimental design, and computerized simulation of synergism and antagonism in drug combination studies. Pharmacol Rev. 2006 September; 58(3):621-81]. […] Mixtures of the drugs at multiples of their single agent IC50's were prepared, as well as serial dilutions of the mixture. Additionally, single agent dose response was determined for the same concentration ranges as used for combination study.
(§4) The coefficient of interaction (CI(IC50)) at IC50 and coefficient of interaction under optimal experimental concentrations (CI(e)) were determined using CalcuSyn software package (Table 3, tests were performed in quadruplicate, mean values reported). Commonly, experimental values of CI<0.8 are considered synergistic, 0.8<CI<1.2 additive.

A549 NSCLC = test: Monolayer assay (DNA content by propidium iodide), single agents and indibulin combinations, A549; type: cell-based, human; conditions: for CI (e), coefficient of interaction under optimal experimental concentrations: named drug in combination with indibulin, mean of quadruplicate; for IC50: Homo sapiens
Experimental: as §1, §2, §3, §4

SKOV3 (ovarian) = test: Monolayer assay (DNA content by propidium iodide), single agents and indibulin combinations, SKOV3; type: cell-based, human; conditions: for Single Agent IC50: SKOV3, single agent (combination study); for Combination IC50 / CI (e), coefficient of interaction under optimal experimental concentrations: SKOV3; for CI (e), coefficient of interaction under optimal experimental concentrations: named drug in combination with indibulin, mean of quadruplicate; for IC50: Homo sapiens
Experimental: as §1, §2, §3, §4

PC3 (prostate) = test: Monolayer assay (DNA content by propidium iodide), single agents and indibulin combinations, PC3; type: cell-based, human; conditions: for IC50: Homo sapiens, read-out: Single Agent IC50; for Combination IC50 / CI (e), coefficient of interaction under optimal experimental concentrations: PC3; for Combination IC50: concentration of the named drug in the combination; for CI (e), coefficient of interaction under optimal experimental concentrations: named drug in combination with indibulin, mean of quadruplicate
Experimental: as §1, §2, §3, §4

[2] = system: biotin-labeled calf brain tubulin; test: Competition with 3H-colchicine for tubulin binding (SPA beads); parameters: species or system bovine; conditions: 200-fold molar excess of cold competitor; FIG. 8
Experimental: (§5) Where indicated, a 200-fold molar excess of cold competitor was added. Tubulin heterodimers were then precipitated with streptavidin-coated SPA beads and bound radioactivity was determined. “No tubulin” indicates non-specifically bound radioactivity measured in the absence of biotin-labeled tubulin.

[3] = system: biotin-labeled calf brain tubulin; test: Competition with 3H-indibulin for tubulin binding (SPA beads); parameters: species or system bovine; conditions: 200-fold molar excess of cold competitor; FIG. 7
Experimental: as §5

[4] = system: axonal microtubules of rat pheochromocytoma (PC12) cells; test: Axonal microtubule immunostaining in NGF-differentiated PC12 cells; type: cell-based; conditions: PC12 neurites induced by NGF 5-6 days; 24 h treatment at 2×IC50 concentration
From the text: The outgrowth of neurites of PCl2 was induced by NGF for 5-6 days. […] Microtubules within the neurites, were visualized by immunostaining with an antibody recognizing acetylated (axonal) tubulin, leaving the cell bodies unstained.

[5] = system: adult bovine brain tubulin; test: Tubulin polymerization, adult bovine brain tubulin; type: biochemical; conditions: calf and adult bovine brain tubulin compared
From the text: Tubulin from neuronal tissue is post-translationally modified and the degree of modification increases during neuronal development. Calf brain neuronal tubulin and tubulin from other tissues differ in their post-translational modifications from that of adult bovine brain. […] Tubulin polymerization is given as % over DMSO control.

[6] = MCF7, MCF7, single agent (combination study), read-out: Single Agent IC50
[7] = MCF7, single agent (combination study)
[8] = MCF7, indibulin + 5-FU (5FU:indibulin 10.9:1), concentration of the named drug in the combination
[9] = A549, single agent (combination study)
[10] = A549, indibulin + carboplatin (carboplatin:indibulin 303:1), concentration of the named drug in the combination
[11] = A549, 96 h, A549, single agent, 4 days incubation, read-out: Growth IC50
[12] = MCF7, 96 h, MCF7, single agent, 4 days incubation, read-out: Growth IC50
[13] = MCF7, indibulin + paclitaxel (paclitaxel:indibulin 0.27:1), concentration of the named drug in the combination
[14] = MCF7, indibulin + vinorelbine (vinorelbine:indibulin 0.016:1), concentration of the named drug in the combination

SMILES: O=c1[nH]cc(F)c(=O)[nH]1 [5-FU, 5-Fluorouracil]
- IC50 [1, 6]: 92 ng/mL
- Single Agent IC60 [1, 7]: 84 ng/mL
- Combination IC50 [1, 8]: 57 ng/mL
- Combination IC60 [1, 8]: 30 ng/mL
- CI (e), coefficient of interaction under optimal experimental concentrations ([1]; MCF7): 0.46

SMILES: N.N.O=C([O-])C1(C(=O)[O-])CCC1.[Pt+2] [Carboplatin]
- Single Agent IC50 (A549 NSCLC; [9]): 5,827 ng/mL
- Single Agent IC70 (A549 NSCLC; [9]): 15365 ng/mL
- Combination IC50 (A549 NSCLC; [10]): 3481 ng/mL
- Combination IC70 (A549 NSCLC; [10]): 8044 ng/mL
- CI (e), coefficient of interaction under optimal experimental concentrations (A549 NSCLC; A549): 0.72
- Single Agent IC50 (SKOV3 (ovarian)): 12,026 ng/mL
- Combination IC50 (SKOV3 (ovarian); indibulin + carboplatin, concentration of the named drug in the combination): 12,881 ng/mL
- CI (e), coefficient of interaction under optimal experimental concentrations (SKOV3 (ovarian)): 0.73

SMILES: N.N.[Cl][Pt][Cl] [Cisplatin]
- Single Agent IC50 (SKOV3 (ovarian)): 773 ng/mL
- Combination IC50 (SKOV3 (ovarian); indibulin + cisplatin, concentration of the named drug in the combination): 780 ng/mL
- CI (e), coefficient of interaction under optimal experimental concentrations (SKOV3 (ovarian)): 0.77

SMILES: COc1cccc2c1C(=O)c1c(O)c3c(c(O)c1C2=O)C[C@@](O)(C(=O)CO)C[C@@H]3O[C@H]1C[C@H](N)[C@H](O)[C@H](C)O1 [Doxorubicin]
- IC50 [1, 6]: 7 ng/mL
- Combination IC50 ([1]; MCF7, indibulin + doxorubicin, concentration of the named drug in the combination): 3 ng/mL
- CI (e), coefficient of interaction under optimal experimental concentrations ([1]; MCF7): 0.64

SMILES: C#Cc1cccc(Nc2ncnc3cc(OCCOC)c(OCCOC)cc23)c1 [Erlotinib]
- Single Agent IC40 (A549 NSCLC; [9]): 20315 ng/mL
- Combination IC40 (A549 NSCLC; A549, indibulin + erlotinib (erlotinib:indibulin 208:1), concentration of the named drug in the combination): 4424 ng/mL
- CI (e), coefficient of interaction under optimal experimental concentrations (A549 NSCLC; A549): 0.32
- IC50 (A549 NSCLC; [11]): 7860 ng/mL
- IC50 (A549 NSCLC; A549, A549, single agent (combination study), read-out: Single Agent IC50): 38500 ng/mL
- IC50 (A549 NSCLC; A549, A549, indibulin + erlotinib (erlotinib:indibulin 208:1), concentration of the named drug in the combination, read-out: Combination IC50): 6200 ng/mL

SMILES: C[C@]12CC[C@@H]3c4ccc(OC(=O)N(CCCl)CCCl)cc4CC[C@H]3[C@@H]1CC[C@@H]2O [Estramustine]
- IC50 (PC3 (prostate)): 29700 ng/mL
- Combination IC50 (PC3 (prostate); indibulin + estramustine): 26,466 ng/mL
- CI (e), coefficient of interaction under optimal experimental concentrations (PC3 (prostate)): 0.76

SMILES: COc1cc([C@@H]2c3cc4c(cc3[C@@H](O[C@@H]3O[C@@H]5CO[C@@H](C)O[C@H]5[C@H](O)[C@H]3O)[C@H]3COC(=O)[C@H]23)OCO4)cc(OC)c1O [Etoposide]
- Single Agent IC60 (A549 NSCLC; [9]): 177 ng/mL
- Combination IC60 (A549 NSCLC; A549, indibulin + etoposide, concentration of the named drug in the combination): 94 ng/mL
- CI (e), coefficient of interaction under optimal experimental concentrations (A549 NSCLC; A549): 1.05
- IC50 (A549 NSCLC; [11]): 52 ng/mL

SMILES: Nc1ccn([C@@H]2O[C@H](CO)[C@@H](O)C2(F)F)c(=O)n1 [Gemcitabine]
- CI (e), coefficient of interaction under optimal experimental concentrations (A549 NSCLC; A549): 0.93
- IC50 (A549 NSCLC; [11]): 1.7 ng/mL
- IC50 (SKOV3 (ovarian); SK-OV-3, SKOV3, single agent (combination study), read-out: Single Agent IC50): 11 ng/mL
- IC50 (SKOV3 (ovarian); SK-OV-3, SKOV3, indibulin + gemcitabine, concentration of the named drug in the combination, read-out: Combination IC50): 12 ng/mL
- CI (e), coefficient of interaction under optimal experimental concentrations (SKOV3 (ovarian)): 0.65

SMILES: CC(=O)O[C@H]1C(=O)[C@@]2(C)[C@H]([C@H](OC(=O)c3ccccc3)[C@]3(O)C[C@H](OC(=O)[C@H](O)[C@@H](NC(=O)c4ccccc4)c4ccccc4)C(C)=C1C3(C)C)[C@]1(OC(C)=O)CO[C@@H]1C[C@@H]2O [Paclitaxel]
- IC50 [1, 12]: 0.3 ng/mL
- IC50 [1, 6]: 1.27 ng/mL
- Single Agent IC84 [1, 7]: 5.3 ng/mL
- Combination IC50 [1, 13]: 1.08 ng/mL
- Combination IC84 [1, 13]: 2.7 ng/mL
- CI (e), coefficient of interaction under optimal experimental concentrations ([1]; MCF7): 0.42
- Inhibition of 3H-colchicine binding (in words) [2]: no effect
- Competition with 3H-indibulin for tubulin binding [3]: do not compete

SMILES: C[C@]12C=CC(=O)C=C1CC[C@@H]1[C@@H]2[C@@H](O)C[C@@]2(C)[C@H]1CC[C@]2(O)C(=O)CO [Prednisolone]
- IC50 (PC3 (prostate); PC3, single agent (combination study)): 137000 ng/mL
- Combination IC50 (PC3 (prostate); indibulin + prednisolone): 145,659 ng/mL
- CI (e), coefficient of interaction under optimal experimental concentrations (PC3 (prostate)): 0.91

SMILES: CC/C(=C(\c1ccccc1)c1ccc(OCCN(C)C)cc1)c1ccccc1 [Tamoxifen]
- Single Agent IC60 [1, 7]: 3166 ng/mL
- Combination IC60 ([1]; MCF7, indibulin + tamoxifen (tamoxifen:indibulin 100:1), concentration of the named drug in the combination): 641 ng/mL
- CI (e), coefficient of interaction under optimal experimental concentrations ([1]; MCF7): 0.67

SMILES: CC[C@]1(O)C[C@@H]2CN(CCc3c([nH]c4ccccc34)[C@@](C(=O)OC)(c3cc4c(cc3OC)N(C)[C@H]3[C@@](O)(C(=O)OC)[C@H](OC(C)=O)[C@]5(CC)C=CCN6CC[C@]43[C@@H]65)C2)C1 [Vinblastine]
- CI (e), coefficient of interaction under optimal experimental concentrations ([1]; MCF7): 0.50
- Inhibition of 3H-colchicine binding (in words) [2]: no effect
- Competition with 3H-indibulin for tubulin binding [3]: do not compete

SMILES: CCC1=C[C@@H]2CN(C1)Cc1c([nH]c3ccccc13)[C@@](C(=O)OC)(c1cc3c(cc1OC)N(C)[C@H]1[C@@](O)(C(=O)OC)[C@H](OC(C)=O)[C@]4(CC)C=CCN5CC[C@]31[C@@H]54)C2 [Vinorelbine]
- IC50 [1, 12]: 0.18 ng/mL
- IC50 [1, 6]: 0.19 ng/mL
- Single Agent IC60 [1, 7]: 0.26 ng/mL
- Combination IC50 [1, 14]: 0.08 ng/mL
- Combination IC60 [1, 14]: 0.10 ng/mL

SMILES: COc1cc2c(c(OC)c1OC)-c1ccc(OC)c(=O)cc1[C@@H](NC(C)=O)CC2 [colchicine]
- Effect on axonal microtubules (acetylated tubulin immunostaining) [4]: microtubules were partially disrupted

SMILES: COC(=O)Nc1nc2ccc(C(=O)c3cccs3)cc2[nH]1 [nocodazole]
- Inhibition of 3H-colchicine binding (in words) [2]: completely inhibit binding
- Competition with 3H-indibulin for tubulin binding [3]: compete

SMILES: COc1cc([C@@H]2c3cc4c(cc3[C@H](O)[C@H]3COC(=O)[C@H]23)OCO4)cc(OC)c1OC [podophyllotoxin]
- Inhibition of 3H-colchicine binding (in words) [2]: completely inhibit binding
- Competition with 3H-indibulin for tubulin binding [3]: compete

SMILES: CC[C@]1(O)C[C@H]2CN(CCc3c([nH]c4ccccc34)[C@@](C(=O)OC)(c3cc4c(cc3OC)N(C=O)[C@H]3[C@@](O)(C(=O)OC)[C@H](OC(C)=O)[C@]5(CC)C=CCN6CC[C@]43[C@@H]65)C2)C1 [vincristine]
- Inhibition of calf versus bovine brain tubulin polymerization (in words) [5]: inhibited both, calf and bovine brain tubulin polymerization to a similar extent
